In US20210015749A1, “NANOCOCHLEATE FORMULATION AND METHOD OF PREPARING THE NANOCOCHLEATE FORMULATION” (priority 2019, published 2021):

Test system: glucocorticoid-treated rats
Experiment: Biochemical tests of serum bone parameters in treatment groups of osteoporotic (prednisolone) rats
Type: in vivo, rat
[1] = serum, * = significant difference with prednisolone group

Q: What does the source list for Vitamin D?
A: Ph (serum phosphorus): 7.525 ± 0.4272; Bone-ALP [1]: 312 ± 24.42; Ca [1]: 9.367 ± 0.3786; OPG [1]: 3.325 ± .9012; Osteocalcin [1]: 16.5 ± 2.121
